Among the data in patent publication US20230114728A1 (Venatorx Pharmaceuticals, Inc., priority 2019, published 2023) are MIC values, retold here.

Assay in all cases: Broth microdilution MIC in CAMHB
What all share (format): cell-based
For orientation: Broth dilution looks for growth in wells or tubes with falling amounts of substance.

Experiment [1] relates to A. baumannii ATCC 19606. As to conditions: Acinetobacter baumannii, ATCC19606; MHB; read-out: Minimum Inhibitory Concentration, A. baumannii ATCC 19606. The method in brief:
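Hyper-permeable or efflux-deficient strains serve to probe outer-membrane penetration. Growth inhibition is scored visually after 16-20 h at 37° C in CAMHB, starting from 2-8×10^5 CFU/mL.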

In experiment [2] the test system is E. coli 901C. As to conditions: Escherichia coli; E. coli 901C (hyper-permeable); MHB; read-out: Minimum Inhibitory Concentration, E. coli 901C. Summed up: (§1)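 MIC, read by eye, is the lowest compound concentration giving no bacterial growth after 16-20 h at 37° C. Test compounds are serially diluted 2-fold in CAMHB and seeded with 2-8×10^5 CFU/mL of bacteria taken from a 3-5 h shaking culture, following CLSI methods.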

The subject of experiment [3] is E. coli AG100A. Particulars: Escherichia coli, read-out: Minimum Inhibitory Concentration, E. coli AG100A. The method in brief: as §1
Experiment [4] has as its system E. coli AG100. As to conditions: Escherichia coli; E. coli AG100 (wild-type parent); MHB; read-out: Minimum Inhibitory Concentration, E. coli AG100. Summed up:
as §1

Experiment [5] concerns E. coli ATCC 25922. As to conditions: Escherichia coli, ATCC25922; E. coli ATCC 25922; MHB; read-out: Minimum Inhibitory Concentration, E. coli 25922. The method in brief:
as §1

For experiment [6], the system named is E. coli D22. Particulars: Escherichia coli; E. coli D22 (hyper-permeable); MHB; read-out: Minimum Inhibitory Concentration, E. coli D22. Summed up: as §1
Experiment [7] concerns K. pneumoniae 848844 producing SHV-11 and KPC-2. As to conditions: Klebsiella pneumoniae, read-out: Minimum Inhibitory Concentration, K. pneumoniae 848844. The method in brief: as §1
Experiment [8] concerns K. pneumoniae SI-117 producing VIM-1. As to conditions: Klebsiella pneumoniae, read-out: Minimum Inhibitory Concentration, K. pneumoniae SI-117. Summed up: as §1
Experiment [9] relates to K. pneumoniae UMM producing SHV-5 and KPC-2. Particulars: Klebsiella pneumoniae, read-out: Minimum Inhibitory Concentration, K. pneumoniae UMM. The method in brief:
as §1

For experiment [10], the system named is P. aeruginosa (ΔmexAB-oprM). As to conditions: Pseudomonas aeruginosa, read-out: Minimum Inhibitory Concentration, P. aeruginosa ΔmexAB-OprM. The method in brief: as §1
Experiment [11] has as its system P. aeruginosa ATCC 27853. Particulars: Pseudomonas aeruginosa, ATCC27853; MHB; read-out: Minimum Inhibitory Concentration, P. aeruginosa ATCC 27853. Summed up: as §1
Experiment [12] relates to P. aeruginosa ATCC 35151. Particulars: Pseudomonas aeruginosa, ATCC35151; MHB; hyper-permeable strain; read-out: Minimum Inhibitory Concentration, P. aeruginosa ATCC 35151. The method in brief:
as §1

Converted amounts (≈) assume the structure as drawn. Some results are limits rather than exact numbers.

For `N=C(N)NC(C(=O)N[C@H]1Cc2ccc(F)c(C(=O)O)c2OB1O)c1ncc(O)cc1F` (stereo partly drawn) [Example 52, (3R)-7-fluoro-3-(2-(3-fluoro-5-hydroxypyridin-2-yl)-2-guanidinoacetamido)-2-hydroxy-3,4-dihydro-2H-benzo[e][1,2]oxaborinine-8-carboxylic acid], the MIC in [1], in experiment [2], in experiment [3], in experiment [4], in [5] and in experiment [6] was greater than 128 µg/mL throughout. The MIC in experiment [7], in [8], in experiment [9], in experiment [10], in experiment [11] and in [12] was greater than 128 µg/mL in each case.
Regarding `CCN1CCN(C(=O)NC(C(=O)N[C@H]2Cc3cccc(C(=O)O)c3OB2O)c2cccc(O)c2)C(=O)C1=O` (stereo partly drawn) [Example 68, (3R)-3-(2-(4-ethyl-2,3-dioxopiperazine-1-carboxamido)-2-(3-hydroxyphenyl)acetamido)-2-hydroxy-3,4-dihydro-2H-benzo[e][1,2]oxaborinine-8-carboxylic acid], the MIC in [1] is greater than 128 µg/mL; in experiment [2], less than 0.25 µg/mL; in experiment [3], 2 to 4 µg/mL (≈ 3.81 to 7.63 µM); in experiment [4], 32 to 64 µg/mL (≈ 61 to 122 µM); in experiment [5], 32 to 64 µg/mL (≈ 61 to 122 µM); in [6], 2 to 4 µg/mL (≈ 3.81 to 7.63 µM). In addition, the MIC is greater than 128 µg/mL in experiment [7]; 32 to 64 µg/mL (≈ 61 to 122 µM) in [8]; 32 to 64 µg/mL (≈ 61 to 122 µM) in experiment [9]; 2 to 4 µg/mL (≈ 3.81 to 7.63 µM) in experiment [10]; greater than 128 µg/mL in [11]; 0.5 to 1 µg/mL (≈ 0.954 to 1.91 µM) in [12].
On to `CCN1CCN(C(=O)NC(C(=O)N[C@H]2Cc3cccc(C(=O)O)c3OB2O)c2ccc(O)cc2O)C(=O)C1=O` (stereo partly drawn) [Example 69, (3R)-3-(2-(2,4-dihydroxyphenyl)-2-(4-ethyl-2,3-dioxopiperazine-1-carboxamido)acetamido)-2-hydroxy-3,4-dihydro-2H-benzo[e][1,2]oxaborinine-8-carboxylic acid], for which the MIC is greater than 128 µg/mL in [1]; less than 0.25 µg/mL in experiment [2]; 2 to 4 µg/mL (≈ 3.7 to 7.4 µM) in experiment [3]; 32 to 64 µg/mL (≈ 59.2 to 118 µM) in experiment [4]; 32 to 64 µg/mL (≈ 59.2 to 118 µM) in [5]; 2 to 4 µg/mL (≈ 3.7 to 7.4 µM) in [6]. For the same compound, the MIC in [7] is 32 to 64 µg/mL (≈ 59.2 to 118 µM); in [8] it was 32 to 64 µg/mL (≈ 59.2 to 118 µM); in [9], 32 to 64 µg/mL (≈ 59.2 to 118 µM); in [10] it was 32 to 64 µg/mL (≈ 59.2 to 118 µM); in [11], greater than 128 µg/mL; in experiment [12], 8 to 16 µg/mL (≈ 14.8 to 29.6 µM).
Regarding `CCN1CCN(C(=O)NC(C(=O)N[C@H]2Cc3cccc(C(=O)O)c3OB2O)c2ccc(O)cc2OC)C(=O)C1=O` (stereo partly drawn) [Example 70, (3R)-3-(2-(4-ethyl-2,3-dioxopiperazine-1-carboxamido)-2-(4-hydroxy-2-methoxyphenyl)acetamido)-2-hydroxy-3,4-dihydro-2H-benzo[e][1,2]oxaborinine-8-carboxylic acid], the MIC in [1] was greater than 128 µg/mL; in experiment [2], 0.5 to 1 µg/mL (≈ 0.902 to 1.8 µM); in experiment [3], 2 to 4 µg/mL (≈ 3.61 to 7.22 µM); in experiment [4], greater than 128 µg/mL; in experiment [5], greater than 128 µg/mL; in experiment [6], 8 to 16 µg/mL (≈ 14.4 to 28.9 µM). Besides, the MIC in experiment [7] is greater than 128 µg/mL; in [8], greater than 128 µg/mL; in [9], greater than 128 µg/mL; in [10], 8 to 16 µg/mL (≈ 14.4 to 28.9 µM); in [11], greater than 128 µg/mL; in experiment [12], 8 to 16 µg/mL (≈ 14.4 to 28.9 µM).
Regarding `CCN1CCN(C(=O)NC(C(=O)N[C@H]2Cc3cccc(C(=O)O)c3OB2O)c2cccc(N)c2)C(=O)C1=O` (stereo partly drawn) [Example 72, (3R)-3-(2-(3-aminophenyl)-2-(4-ethyl-2,3-dioxopiperazine-1-carboxamido)acetamido)-2-hydroxy-3,4-dihydro-2H-benzo[e][1,2]oxaborinine-8-carboxylic acid], the MIC in experiment [1] was greater than 128 µg/mL; in experiment [2] it was less than 0.25 µg/mL; in experiment [3] it was 2 to 4 µg/mL (≈ 3.82 to 7.64 µM); in experiment [4], 32 to 64 µg/mL (≈ 61.1 to 122 µM); in [5], 32 to 64 µg/mL (≈ 61.1 to 122 µM); in experiment [6] it was 2 to 4 µg/mL (≈ 3.82 to 7.64 µM). In addition, the MIC was greater than 128 µg/mL in [7]; greater than 128 µg/mL in experiment [8]; 32 to 64 µg/mL (≈ 61.1 to 122 µM) in experiment [9]; 8 to 16 µg/mL (≈ 15.3 to 30.6 µM) in experiment [10]; greater than 128 µg/mL in experiment [11]; 2 to 4 µg/mL (≈ 3.82 to 7.64 µM) in experiment [12].
As to `CCN1CCN(C(=O)NC(C(=O)N[C@H]2Cc3cccc(C(=O)O)c3OB2O)c2cccc(NC(=O)c3ccc(O)c(O)c3Cl)c2)C(=O)C1=O` (stereo partly drawn) [Example 73, (3R)-3-(2-(3-(2-chloro-3,4-dihydroxybenzamido)phenyl)-2-(4-ethyl-2,3-dioxopiperazine-1-carboxamido)acetamido)-2-hydroxy-3,4-dihydro-2H-benzo[e][1,2]oxaborinine-8-carboxylic acid], the MIC in experiment [1] is 0.5 to 1 µg/mL (≈ 0.721 to 1.44 µM); in [2] it was less than 0.25 µg/mL; in experiment [3] it was 2 to 4 µg/mL (≈ 2.88 to 5.76 µM); in experiment [4] it was 2 to 4 µg/mL (≈ 2.88 to 5.76 µM); in [5], 2 to 4 µg/mL (≈ 2.88 to 5.76 µM); in experiment [6], 2 to 4 µg/mL (≈ 2.88 to 5.76 µM). Further, the MIC was in the range of 8 to 16 µg/mL (≈ 11.5 to 23.1 µM) in [7]; 8 to 16 µg/mL (≈ 11.5 to 23.1 µM) in experiment [8]; 0.5 to 1 µg/mL (≈ 0.721 to 1.44 µM) in experiment [9]; 0.5 to 1 µg/mL (≈ 0.721 to 1.44 µM) in [10]; 2 to 4 µg/mL (≈ 2.88 to 5.76 µM) in experiment [11]; 0.5 to 1 µg/mL (≈ 0.721 to 1.44 µM) in experiment [12].
Consider `CCN1CCN(C(=O)NC(C(=O)N[C@H]2Cc3cccc(C(=O)O)c3OB2O)c2ccc(O)c(NC(=O)c3ccc(O)c(O)c3Cl)c2)C(=O)C1=O` (stereo partly drawn) [Example 74, (3R)-3-(2-(3-(2-chloro-3,4-dihydroxybenzamido)-4-hydroxyphenyl)-2-(4-ethyl-2,3-dioxopiperazine-1-carboxamido)acetamido)-2-hydroxy-3,4-dihydro-2H-benzo[e][1,2]oxaborinine-8-carboxylic acid], for which the MIC in [1] was greater than 128 µg/mL; in experiment [2] it was less than 0.25 µg/mL; in experiment [3], 8 to 16 µg/mL (≈ 11.3 to 22.5 µM); in experiment [4], 8 to 16 µg/mL (≈ 11.3 to 22.5 µM); in [5] it was greater than 128 µg/mL; in experiment [6], 2 to 4 µg/mL (≈ 2.82 to 5.63 µM). The MIC is greater than 128 µg/mL in experiment [7]; greater than 128 µg/mL in experiment [8]; greater than 128 µg/mL in [9]; 0.5 to 1 µg/mL (≈ 0.704 to 1.41 µM) in experiment [10]; 8 to 16 µg/mL (≈ 11.3 to 22.5 µM) in experiment [11]; 0.5 to 1 µg/mL (≈ 0.704 to 1.41 µM) in experiment [12].
As for `CCN1CCN(C(=O)NC(C(=O)N[C@H]2Cc3cccc(C(=O)O)c3OB2O)c2cccc([N+](=O)[O-])c2)C(=O)C1=O` (stereo partly drawn) [Example 75, (3R)-3-(2-(4-ethyl-2,3-dioxopiperazine-1-carboxamido)-2-(3-nitrophenyl)acetamido)-2-hydroxy-3,4-dihydro-2H-benzo[e][1,2]oxaborinine-8-carboxylic acid], the MIC was greater than 128 µg/mL in experiment [1]; 0.5 to 1 µg/mL (≈ 0.904 to 1.81 µM) in [2]; 8 to 16 µg/mL (≈ 14.5 to 28.9 µM) in [3]; greater than 128 µg/mL in experiment [4]; greater than 128 µg/mL in [5]; 8 to 16 µg/mL (≈ 14.5 to 28.9 µM) in experiment [6]. In addition, the MIC in experiment [7] was greater than 128 µg/mL; in [8] it was greater than 128 µg/mL; in [9] it was greater than 128 µg/mL; in experiment [10] it was 32 to 64 µg/mL (≈ 57.8 to 116 µM); in experiment [11] it was greater than 128 µg/mL; in experiment [12] it was 8 to 16 µg/mL (≈ 14.5 to 28.9 µM).
